Measurements reported in PMC7734281, “Functionalized Oxoindolin Hydrazine Carbothioamide Derivatives as Highly Potent Inhibitors of Nucleoside Triphosphate Diphosphohydrolases” (Frontiers in Pharmacology, 2020).
“Also recorded” adds a separate entry of the source.

Tests used:
mice pancreatic islets = experiment: Glucose stimulated insulin secretion in isolated mice islets (ELISA); format: cell-based, BALB/c mice; settings: 16.7 mM glucose; for Effect on glucose stimulated insulin secretion: compound 200 µM, 1 h, 37°C
Protocol: Six to eight week old BALB/c mice, weighing 30–40 g, were used in the study. These mice were obtained from the animal house of COMSATS University Islamabad, Abbottabad Campus and placed under standard temperature (25 ± 2°C) and humidity (50–55%) conditions with an alternate 12-h light/dark cycle. All the experimental animals were provided with a continuous supply of food and water. The animals were handled according to internationally accepted guidelines of animal care and use. Moreover, this study was reviewed and approved by Research Ethics Committee, Department of Pharmacy, COMSATS University Islamabad, Abbottabad Campus. (Protocol number: PHM.Eth./CS-M01-020-1609)
The islets were isolated from mice pancreas as previously described, by a process involving collagenase digestion ([Hameed et al., 2018]). Briefly, mice were anesthetized with sodium thiopental (30 mg kg) and sacrificed by cervical dislocation to block the flow of blood. Immediately, mice were transferred to biological hood and their abdominal cavity was opened completely by making an incision on abdomen. In order to stop the bile flow toward duodenum, ampulla was located and clamped under dissection microscope. Then, distention of pancreas was carried out by injecting 3 ml of collagenase solution (1 mg/ml) through common bile duct. The distended pancreas was removed as a whole, transferred to a 50 ml tube and digested in collagenase solution at 37°C. After 15 min, digestion was stopped by placing the tube on ice and 20 ml of Hank’s Balanced Salt Solution (HBSS) was added to it. Thus the digested islets were washed with HBSS (two to three times) by centrifugation (1,000 rpm) for 1 min at 4°C. Finally, islets were purified by passing through a cell strainer (70 µm) and isolated manually (by hand picking) under stereomicroscope (Euromex, Arnhem, Netherlands). All the purification and isolation procedures were carried out in HBSS, containing no magnesium, calcium and phenol red.
Krebs-Ringer bicarbonate buffer (KRBB) was used as an incubation medium for islets and was composed of NaCl (118 mM), KCl (4.7 mM), CaCl2 (1.9 mM), MgSO4 (1.2 mM), NaHCO3 (25 mM), 4-(2-hydroxyethyl)-1-piperazineethanesulfonic acid (HEPES, 10 mM) and bovine serum albumin (0.1%). The pH of KRBB was maintained at 7.4. The isolated islets were size-matched and pre-incubated (3 islets/tube) for 45 min at 37°C in KRBB, supplemented with 3 mM glucose. Thereafter, incubation medium was replaced with fresh KRBB (containing 16.7 mM glucose) and islets were incubated for 60 min at 37°C with or without test substance(s). After incubation, supernatant was collected and stored at −40°C until further use. Finally, collected samples were properly diluted and insulin secretion was estimated with ultra-sensitive mouse insulin ELISA kit (Crystal Chem Inc., Downers Grove, United States) according to the manufacturer’s instructions. The absorbance was measured at 450 nm and insulin secretion was normalized for number of islets used. ([Hameed et al., 2018]).

[1] = tested on: ectonucleotidase activity in islets homogenate; experiment: Ectonucleotidase activity of islet homogenate (malachite green, Pi release); format: biochemical, mice; settings: for Effect on ectonucleotidase activity in islets homogenate: compound 100 µM, 100 µM ATP as substrate, versus control
Protocol: Islets were isolated and homogenized, according to the previously reported method ([Hedeskov and Capito, 1974]). After isolation, islets were washed thrice with HBSS and suspended in an ice-cold buffer containing sucrose (0.25 M), ethylenediaminetetraacetic acid (EDTA,1 mM) and tris-HCl (5 mM), maintained at pH 7.0. The resulting suspension was diluted with assay buffer, composed of tris-HCl (50 mM) and CaCl2 (5 mM). Afterward, these islets were sonicated for 30 s leading to disruption of islets and formation of a homogenate. Cellular debris was removed by centrifugation at 15,000 rpm for 10 min (4°C). The supernatant was collected and stored on ice. Protein concentration was estimated by Bradford method, using bovine serum albumin as reference standard ([Bradford, 1976]).
In order to determine the effect of compounds on ectonucleotidase activity in mice islets, standard curve based procedure was used where KH2PO4 was used as a standard. A stock solution of KH2PO4 (1 mM) was prepared in assay buffer that was used to prepare the working solutions of lower concentrations (0–100 µm). A standard curve was generated by incubating increasing concentration of KH2PO4 with buffer and malachite green reagent.
The assay was carried out in tris-buffer (pH 7.4) containing tris-HCl (50 mM) and CaCl2 (5 mM), as previously described ([Lavoie et al., 2010]). Compounds were dissolved in DMSO (10%) and tested at a concentration of 100 µM. The assay was started by adding 10 µl of test compound solution to 56 µl of assay buffer, followed by the addition of 6 µl of homogenate (i.e., 3 µg of protein). The mixture was incubated at 37°C for 10 min and then 10 µl of ATP (100 µM) was added to start the reaction. Reaction mixture was again placed in incubator at 37°C for 15 min and then reaction was stopped by adding 100 µl of trichloroacetic acid (10%). […] Finally, samples were mixed with malachite green reagent in an appropriate proportion and released Pi was determined by using standard curve. […] All the experiments were carried out in triplicate and enzyme activity was expressed as […] of Pi/min/mg of protein.

h-NTPDase8 = molecular target: T1, h-NTPDase8 (Homo sapiens, UniProt Q5MY95); experiment: h-NTPDase8 inhibition, malachite green assay; format: biochemical; settings: Lineweaver-Burk plot
T1 construct: made in house; host or cells: COS-7 cells, transient transfection; crude protein extract after sonication
T1 sequence (Q5MY95 1-495): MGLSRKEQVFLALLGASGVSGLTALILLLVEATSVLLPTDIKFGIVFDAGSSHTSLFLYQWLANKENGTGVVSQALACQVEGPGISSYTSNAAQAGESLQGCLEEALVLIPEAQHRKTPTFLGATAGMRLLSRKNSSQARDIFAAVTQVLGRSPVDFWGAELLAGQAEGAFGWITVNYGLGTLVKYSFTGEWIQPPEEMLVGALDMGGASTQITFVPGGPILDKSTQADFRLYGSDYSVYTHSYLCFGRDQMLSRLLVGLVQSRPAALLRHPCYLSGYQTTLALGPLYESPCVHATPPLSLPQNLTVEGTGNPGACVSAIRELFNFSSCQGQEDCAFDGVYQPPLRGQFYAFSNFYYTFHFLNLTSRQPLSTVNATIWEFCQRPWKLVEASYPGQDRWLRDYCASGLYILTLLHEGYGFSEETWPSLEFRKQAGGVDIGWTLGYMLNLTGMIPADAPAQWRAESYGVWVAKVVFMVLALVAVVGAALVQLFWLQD

| SMILES | Effect on glucose stimulated insulin secretion (mice pancreatic islets) | Effect on ectonucleotidase activity in islets homogenate [1] | Dose-dependent effect on insulin secretion (mice pancreatic islets; 10–200 µM) | Dose response of ectonucleotidase activity in islet homogenate ([1]; different concentrations, 100 µM ATP, Pi release) | Mode of inhibition of h-NTPDase8 (h-NTPDase8) |
| --- | --- | --- | --- | --- | --- |
| Cc1ccc(C(=O)Nc2ccc(S(=O)(=O)O)c3cc(S(=O)(=O)O)cc(S(=O)(=O)O)c23)cc1NC(=O)c1cccc(NC(=O)Nc2cccc(C(=O)Nc3cc(C(=O)Nc4ccc(S(=O)(=O)O)c5cc(S(=O)(=O)O)cc(S(=O)(=O)O)c45)ccc3C)c2)c1 [Suramin, reference compound] | Neither suramin nor isatin had any significant effect | significantly reduced the enzyme activity | – | – | – |
| CCNC(=S)N/N=C1\C(=O)Nc2ccccc21 [8m, (Z)-N-ethyl-2-(2-oxoindolin-3-ylidene)hydrazine-1-carbothioamide] | potently stimulated insulin secretion; also recorded: significant increase in glucose stimulated insulin secretion | significantly decreased the ectonucleotidase activity; also recorded: significantly reduced the enzyme activity; also recorded: significant reduction in ectonucleotidase activity; also recorded: significantly reduced ectonucleotidase activity | dose dependent increase in insulin release; also recorded: dose dependent increase in insulin secretion | dose dependent decrease in enzyme activity | – |
| O=C1Nc2ccccc2/C1=N/NC(=S)Nc1ccc(Cl)cc1 [8c, (Z)-N-(4-chlorophenyl)-2-(2-oxoindolin-3-ylidene)hydrazine-1-carbothioamide] | no significant effect on insulin secretion; also recorded: did not show any significant effect on insulin secretion | – | – | – | competitive |
